{"source": "patent US8916498B2", "about": "“Safening 6-(trisubstituted phenyl)-4-amino-2-pyridinecarboxylate herbicide injury on direct seeded and transplanted paddy rice” (priority 2008, dated 2014)", "key": {"SEBEX": {"system": "SEBEX", "assay": "Postemergence herbicidal safening in direct seeded rice, visual injury on weed", "format": "in vivo", "settings": "alone, after 3 weeks"}, "weed test plant species": {"system": "weed test plant species", "assay": "Herbicidal safening in transplanted paddy rice, visual injury on weeds", "format": "in vivo", "settings": "after 3 weeks; for Visual Injury (%) CYPDI Obs: Cyperus difformis; for Visual Injury (%) MOOVA Obs: Monochoria vaginalis; for Visual Injury (%) SCPJU Obs: Scirpus juncoides", "protocol": "(§1) Evaluation of Herbicidal Safening in Transplanted Paddy Rice\n(§2) The prepared mud was dispensed in 250 mL aliquots into 480 mL non-perforated plastic pots with a surface area of 91.6 cm^2 leaving a headspace of 3 cm in each pot. Rice seeds were planted in Sun Gro MetroMix 306 planting mixture, which typically has a pH of 6.0 to 6.8 and an organic matter content of about 30 percent, in plastic plug trays. Seedlings at the second or third leaf stage of growth were transplanted into 650 mL of mud contained in 960 mL non-perforated plastic pots with a surface area of 91.6 cm^2 four days prior to herbicide application. The paddy was created by filling the 3 cm headspace of the pots with water. […] Nutrients were added as Osmocote (17:6:10, Nitrogen:Phosphorus:Potassium (N:P:K)+minor nutrients) at 2 grams (g) per cup.\n(§3) For technical grade compounds and safeners, a weighed amount, determined by the highest rate to be tested, was placed in an individual 120 mL glass vial and was dissolved in 20 mL of acetone to obtain concentrated stock solutions. […] The concentrated stock solutions obtained were diluted with 20 mL of acetone. Applications were made by injecting an appropriate amount of the stock solution into the aqueous layer of the paddy. […] All treated plant material received the same concentration of acetone and crop oil concentrate."}, "ECHCO": {"system": "ECHCO", "assay": "Postemergence herbicidal safening in direct seeded rice, visual injury on weed", "format": "in vivo", "settings": "alone, after 3 weeks"}, "CYPDI": {"system": "CYPDI", "assay": "Postemergence herbicidal safening in direct seeded rice, visual injury on weed", "format": "in vivo", "settings": "alone, after 3 weeks"}, "ORYSA (rice)": {"system": "ORYSA (rice)", "assay": "Postemergence herbicidal safening in direct seeded rice, visual injury", "settings": "for ‘M202’ ORYSA Visual Injury (%) Obs: Safener Alone, 560 g ai/ha; for ‘M202’ ORYSA Visual Injury (%) Obs / Visual Injury (%) ‘Lemont’ ORYSA Obs: after 3 weeks; for Visual Injury (%) ‘Lemont’ ORYSA Obs: alone", "source_text": "A=observed efficacy of active ingredient A at the same concentration as used in the mixture.\nB=observed efficacy of active ingredient B at the same concentration as used in the mixture."}, "transplanted paddy rice [1]": {"system": "transplanted paddy rice", "assay": "Herbicidal safening in transplanted paddy rice, visual injury", "format": "in vivo, Oryza sativa", "settings": "after 3 weeks; for ‘M202’ ORYSA Visual Injury (%) Obs: safener 1120 g ae/ha alone", "protocol": "as §1, §2, §3"}, "transplanted paddy rice [2]": {"system": "transplanted paddy rice", "assay": "Safening activity of herbicide mixtures in transplanted paddy rice", "format": "in vivo, Oryza sativa", "protocol": "as §2, §3\nForms of compound 1 were applied on an acid equivalent basis."}}, "note": "Like-named read-outs stand apart in the source and are kept apart here.", "data": [{"compound": "Clc1cc(Cl)nc(-c2ccccc2)n1", "note": "[Fenclorim, 4,6-dichloro-2-phenylpyrimidine]", "values": [{"measurement": "Visual Injury (%) SEBEX Obs", "setting": "SEBEX; 35 g ai/ha", "result": 0, "unit": "%"}, {"measurement": "Visual Injury (%) SEBEX Obs", "setting": "SEBEX; 70 g ai/ha", "result": 0, "unit": "%"}, {"measurement": "Visual Injury (%) SEBEX Obs", "setting": "SEBEX; 140 g ai/ha", "result": 0, "unit": "%"}, {"measurement": "Visual Injury (%) SEBEX Obs", "setting": "SEBEX; 280 g ai/ha", "result": 0, "unit": "%"}, {"measurement": "Visual Injury (%) CYPDI Obs", "setting": "weed test plant species; safener 70 g ai/ha alone", "result": 0, "unit": "%"}, {"measurement": "Visual Injury (%) CYPDI Obs", "setting": "weed test plant species; safener 140 g ai/ha alone", "result": 0, "unit": "%"}, {"measurement": "Visual Injury (%) CYPDI Obs", "setting": "weed test plant species; safener 280 g ai/ha alone", "result": 0, "unit": "%"}, {"measurement": "Visual Injury (%) MOOVA Obs", "setting": "weed test plant species; safener 70 g ai/ha alone", "result": 0, "unit": "%"}, {"measurement": "Visual Injury (%) MOOVA Obs", "setting": "weed test plant species; safener 140 g ai/ha alone", "result": 0, "unit": "%"}, {"measurement": "Visual Injury (%) MOOVA Obs", "setting": "weed test plant species; safener 280 g ai/ha alone", "result": 0, "unit": "%"}, {"measurement": "Visual Injury (%) ECHCO Obs", "setting": "ECHCO; 35 g ai/ha", "result": 0, "unit": "%"}, {"measurement": "Visual Injury (%) ECHCO Obs", "setting": "ECHCO; 70 g ai/ha", "result": 0, "unit": "%"}, {"measurement": "Visual Injury (%) ECHCO Obs", "setting": "ECHCO; 140 g ai/ha", "result": 0, "unit": "%"}, {"measurement": "Visual Injury (%) ECHCO Obs", "setting": "ECHCO; 280 g ai/ha", "result": 0, "unit": "%"}, {"measurement": "Visual Injury (%) CYPDI Obs", "setting": "CYPDI; 35 g ai/ha", "result": 0, "unit": "%"}, {"measurement": "Visual Injury (%) CYPDI Obs", "setting": "CYPDI; 70 g ai/ha", "result": 0, "unit": "%"}, {"measurement": "Visual Injury (%) CYPDI Obs", "setting": "CYPDI; 140 g ai/ha", "result": 0, "unit": "%"}, {"measurement": "Visual Injury (%) CYPDI Obs", "setting": "CYPDI; 280 g ai/ha", "result": 0, "unit": "%"}, {"measurement": "‘M202’ ORYSA Visual Injury (%) Obs", "setting": "ORYSA (rice)", "result": 6.7, "unit": "%"}, {"measurement": "Visual Injury (%) ‘Lemont’ ORYSA Obs", "setting": "ORYSA (rice); 35 g ai/ha", "result": 0, "unit": "%"}, {"measurement": "Visual Injury (%) ‘Lemont’ ORYSA Obs", "setting": "ORYSA (rice); 70 g ai/ha", "result": 0, "unit": "%"}, {"measurement": "Visual Injury (%) ‘Lemont’ ORYSA Obs", "setting": "ORYSA (rice); 140 g ai/ha", "result": 0, "unit": "%"}, {"measurement": "Visual Injury (%) ‘Lemont’ ORYSA Obs", "setting": "ORYSA (rice); 280 g ai/ha", "result": 0, "unit": "%"}]}, {"compound": "COC(=O)c1c(Cl)nn(C)c1S(=O)(=O)NC(=O)Nc1nc(OC)cc(OC)n1", "note": "[Halosulfuron-methyl]", "values": [{"measurement": "ORYSA Visual Injury (%) ‘M202’ Obs", "setting": "direct seeded rice; partner 26 g/ha alone", "result": 0, "unit": "%"}, {"measurement": "ORYSA Visual Injury (%) ‘Wells’ Obs", "setting": "direct seeded rice; partner 26 g/ha alone", "result": 10, "unit": "%"}, {"measurement": "ORYSA Visual Injury (%) ‘M202’ Obs", "setting": "direct seeded rice; partner 52 g/ha alone", "result": 15, "unit": "%"}]}, {"compound": "CCOC(=O)C1=NOC(c2ccccc2)(c2ccccc2)C1", "note": "[Isoxadifen-ethyl, ethyl 4,5-dihydro-5,5-diphenyl-3-isoxazole-carboxylate]", "values": [{"measurement": "Visual Injury (%) SEBEX Obs", "setting": "SEBEX; 17.5 g ai/ha", "result": 0, "unit": "%"}, {"measurement": "Visual Injury (%) SEBEX Obs", "setting": "SEBEX; 35 g ai/ha", "result": 0, "unit": "%"}, {"measurement": "Visual Injury (%) SEBEX Obs", "setting": "SEBEX; 70 g ai/ha", "result": 0, "unit": "%"}, {"measurement": "Visual Injury (%) SEBEX Obs", "setting": "SEBEX; 140 g ai/ha", "result": 0, "unit": "%"}, {"measurement": "Visual Injury (%) SCPJU Obs", "setting": "weed test plant species; safener 140 g ai/ha alone", "result": 0, "unit": "%"}, {"measurement": "Visual Injury (%) SCPJU Obs", "setting": "weed test plant species; safener 280 g ai/ha alone", "result": 0, "unit": "%"}, {"measurement": "Visual Injury (%) SCPJU Obs", "setting": "weed test plant species; safener 560 g ai/ha alone", "result": 0, "unit": "%"}, {"measurement": "Visual Injury (%) ECHCG Obs", "setting": "weed test plant species; safener 140 g ai/ha alone", "result": 0, "unit": "%"}, {"measurement": "Visual Injury (%) ECHCG Obs", "setting": "weed test plant species; safener 280 g ai/ha alone", "result": 0, "unit": "%"}, {"measurement": "Visual Injury (%) ECHCG Obs", "setting": "weed test plant species; safener 560 g ai/ha alone", "result": 0, "unit": "%"}, {"measurement": "Visual Injury (%) ECHCO Obs", "setting": "ECHCO; 17.5 g ai/ha", "result": 0, "unit": "%"}, {"measurement": "Visual Injury (%) ECHCO Obs", "setting": "ECHCO; 35 g ai/ha", "result": 0, "unit": "%"}, {"measurement": "Visual Injury (%) ECHCO Obs", "setting": "ECHCO; 70 g ai/ha", "result": 0, "unit": "%"}, {"measurement": "Visual Injury (%) ECHCO Obs", "setting": "ECHCO; 140 g ai/ha", "result": 0, "unit": "%"}, {"measurement": "Visual Injury (%) ‘M202’ ORYSA Obs", "setting": "transplanted paddy rice [1]; safener 140 g ai/ha alone", "result": 0, "unit": "%"}, {"measurement": "Visual Injury (%) ‘M202’ ORYSA Obs", "setting": "transplanted paddy rice [1]; safener 280 g ai/ha alone", "result": 0, "unit": "%"}, {"measurement": "Visual Injury (%) ‘M202’ ORYSA Obs", "setting": "transplanted paddy rice [1]; safener 560 g ai/ha alone", "result": 0, "unit": "%"}, {"measurement": "‘M202’ ORYSA Visual Injury (%) Obs", "setting": "transplanted paddy rice [1]", "result": 0, "unit": "%"}, {"measurement": "Visual Injury (%) CYPDI Obs", "setting": "CYPDI; 17.5 g ai/ha", "result": 0, "unit": "%"}, {"measurement": "Visual Injury (%) CYPDI Obs", "setting": "CYPDI; 35 g ai/ha", "result": 0, "unit": "%"}, {"measurement": "Visual Injury (%) CYPDI Obs", "setting": "CYPDI; 70 g ai/ha", "result": 0, "unit": "%"}, {"measurement": "Visual Injury (%) CYPDI Obs", "setting": "CYPDI; 140 g ai/ha", "result": 0, "unit": "%"}, {"measurement": "Visual Injury (%) ‘Lemont’ ORYSA Obs", "setting": "ORYSA (rice); 17.5 g ai/ha", "result": 0, "unit": "%"}, {"measurement": "Visual Injury (%) ‘Lemont’ ORYSA Obs", "setting": "ORYSA (rice); 35 g ai/ha", "result": 5, "unit": "%"}, {"measurement": "Visual Injury (%) ‘Lemont’ ORYSA Obs", "setting": "ORYSA (rice); 70 g ai/ha", "result": 10, "unit": "%"}, {"measurement": "Visual Injury (%) ‘Lemont’ ORYSA Obs", "setting": "ORYSA (rice); 140 g ai/ha", "result": 5, "unit": "%"}]}, {"compound": "CCOC(=O)C1=NN(c2ccc(Cl)cc2Cl)C(C)(C(=O)OCC)C1", "note": "(centres unmarked) [Mefenpyr-diethyl]", "values": [{"measurement": "‘M202’ ORYSA Visual Injury (%) Obs", "setting": "transplanted paddy rice [1]", "result": 0, "unit": "%"}, {"measurement": "‘M202’ ORYSA Visual Injury (%) Obs", "setting": "ORYSA (rice)", "result": 0.0, "unit": "%"}, {"measurement": "ORYSA Visual Injury (%) ‘Clearfield’ Obs", "setting": "ORYSA (rice); safener 140 g ai/ha alone", "result": 0, "unit": "%"}, {"measurement": "ORYSA Visual Injury (%) ‘Cocodrie’ Obs", "setting": "ORYSA (rice); safener 140 g ai/ha alone", "result": 10, "unit": "%"}, {"measurement": "ORYSA Visual Injury (%) ‘Lemont’ Obs", "setting": "ORYSA (rice); safener 140 g ai/ha alone", "result": 0, "unit": "%"}, {"measurement": "ORYSA Visual Injury (%) ‘M202’ Obs", "setting": "ORYSA (rice); safener 140 g ai/ha alone", "result": 10, "unit": "%"}]}, {"compound": "CNc1cnn(-c2cccc(C(F)(F)F)c2)c(=O)c1Cl", "note": "[Norflurazon]", "values": [{"measurement": "ORYSA Visual Injury (%) ‘M202’ Obs", "setting": "direct seeded rice; partner 70 g/ha alone", "result": 15, "unit": "%"}]}, {"compound": "O=c1c(Cl)c[nH]c(Cl)c1Cl", "note": "[Pyriclor]", "values": [{"measurement": "Visual Injury (%) ‘M202’ ORYSA Obs", "setting": "transplanted paddy rice [2]; partner 140 g/ha alone", "result": 0, "unit": "%"}]}, {"compound": "CS(=O)(=O)c1ccc(C(=O)C2C(=O)CCCC2=O)c(Cl)c1", "note": "[Sulcotrione]", "values": [{"measurement": "Visual Injury (%) ‘M202’ ORYSA Obs", "setting": "transplanted paddy rice [2]; partner 280 g/ha alone", "result": 10, "unit": "%"}, {"measurement": "ORYSA Visual Injury (%) ‘Wells’ Obs", "setting": "direct seeded rice; partner 280 g/ha alone", "result": 99, "unit": "%"}]}]}
